Source: ChEMBL document CHEMBL1201862, “PubChem BioAssay data set” (2004)
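Values below derive from 48-hour exposures of cells grown in 96-well plates, with endpoints linearly interpolated between the two concentrations bracketing the appropriate inhibition level. GI50 marks 50% less growth.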 Active and inactive are the calls of the source. Rule as the data show it: active = GI50 up to about 1.1 µM and inactive = higher.

Legend:
Experiment in all cases: NCI-60 cell line screen, 48 h
A498 = test system: A498
ACHN = test system: ACHN
COLO 205 = test system: COLO 205
HCT-15 = test system: HCT-15
HOP-92 = test system: HOP-92
IGROV-1 = test system: IGROV-1
M14 = test system: M14
NCI-H226 = test system: NCI-H226
NCI-H23 = test system: NCI-H23
NCI-H460 = test system: NCI-H460
NCI-H522 = test system: NCI-H522
OVCAR-8 = test system: OVCAR-8
SF-295 = test system: SF-295
SN12C = test system: SN12C
SNB-19 = test system: SNB-19
SR = test system: SR
TK-10 = test system: TK-10
U-251 = test system: U-251
UACC-62 = test system: UACC-62
MCF7 = test system: MCF7

Measured: GI50

C=C1C(O)C23CCC4C(C(=O)O)(C(=O)O)CC(OC5OC(CO)C(O)C(OC(=O)CCc6ccccc6)C5NC(=O)CC(C)C)CC4(C)C2CCC1(O)C3 (stereo unspecified)
inactive: A498 > 100 µM | ACHN > 100 µM | COLO 205 > 100 µM | HOP-92 > 100 µM | IGROV-1 > 100 µM | M14 > 100 µM | NCI-H226 > 100 µM | NCI-H23 > 100 µM | NCI-H460 > 100 µM | NCI-H522 > 100 µM | OVCAR-8 > 100 µM | SF-295 > 100 µM | SN12C > 100 µM | SNB-19 > 100 µM | SR > 100 µM | TK-10 > 100 µM | U-251 > 100 µM | UACC-62 > 100 µM
> 100 µM: HCT-15

O=C1N/C(=N/N=C/C(O)C(O)C(O)CO)N/C1=C\c1c[nH]c2ccccc12 (stereo unspecified)
inactive: ACHN > 100 µM | COLO 205 > 100 µM | HOP-92 > 100 µM | IGROV-1 > 100 µM | M14 > 100 µM | MCF7 > 100 µM | NCI-H226 > 100 µM | NCI-H23 > 100 µM | NCI-H460 > 100 µM | NCI-H522 > 100 µM | OVCAR-8 > 100 µM | SF-295 > 100 µM | SN12C > 100 µM | SNB-19 1.93 µM | TK-10 > 100 µM | U-251 > 100 µM | UACC-62 > 100 µM
> 100 µM: HCT-15

CC(=O)O[C@H]1C(=O)[C@@]2(C)C([C@H](OC(=O)c3ccccc3)[C@]3(O)C[C@H](OC(=O)[C@H](O)[C@@H](NC(=O)c4ccc(Cl)cc4)c4ccccc4)C(C)=C1C3(C)C)C1(OC(C)=O)CO[C@@H]1C[C@@H]2O (stereo partly specified)
active: A498 0.322 µM | COLO 205 0.0607 µM | IGROV-1 0.0946 µM | M14 0.0889 µM | MCF7 0.0181 µM | NCI-H226 0.173 µM | NCI-H23 0.0738 µM | NCI-H460 0.0668 µM | NCI-H522 0.0775 µM | OVCAR-8 0.0778 µM | SF-295 0.6 µM | SN12C 0.182 µM | SNB-19 0.137 µM | TK-10 0.661 µM | U-251 0.092 µM | UACC-62 0.0435 µM
inactive: ACHN 6.47 µM
1.36 µM: HCT-15

CCCCCC(=O)Nc1nc(O)c2[nH]cnc2n1
> 100 µM: HCT-15
inactive: A498 > 100 µM | ACHN > 100 µM | COLO 205 > 100 µM | HOP-92 > 100 µM | IGROV-1 > 100 µM | M14 > 100 µM | NCI-H226 > 100 µM | NCI-H23 > 100 µM | NCI-H460 > 100 µM | NCI-H522 52.4 µM | OVCAR-8 > 100 µM | SF-295 > 100 µM | SN12C > 100 µM | SNB-19 > 100 µM | SR > 100 µM | TK-10 > 100 µM | U-251 > 100 µM | UACC-62 > 100 µM

COc1cccc2c1CCc1sc(CN3CCN(C)CC3)nc1-2
83.6 µM: HCT-15
inactive: A498 26.7 µM | ACHN > 100 µM | COLO 205 61.2 µM | IGROV-1 > 100 µM | M14 51.1 µM | MCF7 26.4 µM | NCI-H226 59.8 µM | NCI-H23 84.7 µM | NCI-H460 54.7 µM | NCI-H522 52.2 µM | OVCAR-8 > 100 µM | SF-295 53 µM | SN12C > 100 µM | SNB-19 > 100 µM | TK-10 > 100 µM | U-251 > 100 µM | UACC-62 26.2 µM

C=C=C(C(=O)OC)[S+]([O-])c1ccc([N+](=O)[O-])cc1[N+](=O)[O-] (stereo unspecified)
21.5 µM: HCT-15
inactive: A498 > 100 µM | ACHN 37.2 µM | COLO 205 23.5 µM | HOP-92 18.6 µM | IGROV-1 > 69.8 µM | M14 30.7 µM | NCI-H226 54.6 µM | NCI-H23 53.8 µM | NCI-H460 > 66.7 µM | NCI-H522 14.2 µM | OVCAR-8 25.2 µM | SF-295 > 92.7 µM | SN12C 22.4 µM | SNB-19 56 µM | SR 14.1 µM | TK-10 46 µM | U-251 38.1 µM | UACC-62 28.2 µM
